Results on two molecules are retold here after PMC5118871 (Molecular microbiology, 2016).

One may read the stoichiometry N as a count of units in the complex or per binding partner.

In data set [1] the target is T1, LmOpuCA tandem CBS domains (residues 247–371) (Listeria monocytogenes, UniProt Q9KHT9).
T1 sequence (Q9KHT9 247-371): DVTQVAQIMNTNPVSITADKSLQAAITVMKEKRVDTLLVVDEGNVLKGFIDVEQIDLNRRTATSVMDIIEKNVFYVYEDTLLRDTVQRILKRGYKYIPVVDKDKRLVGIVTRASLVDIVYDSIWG
Description: X-ray crystal structure, […] Å, crystal soaked with c-di-AMP. The following applies: one c-di-AMP per dimer, at the dimer interface; pH 9.0. It counts as binding.

The data set “crystal structure” concerns the molecule itself. Description: crystal structure.

Regarding `Nc1ncnc2c1ncn2[C@@H]1O[C@@H]2COP(=O)(O)O[C@H]3[C@@H](O)[C@H](n4cnc5c(N)ncnc54)O[C@@H]3COP(=O)(O)O[C@H]2[C@H]1O` [c-di-AMP], the “X-ray crystal structure, 2.9 Å, crystal soaked with c-di-AMP” value in data set [1] is reported as “We observed clear electron density for one c-di-AMP molecule bound to the OpuCA dimer”.

B1: L. monocytogenes OpuCA (LmOpuCA) tandem CBS domains (residues 247–371) (domain or fragment, UniProt Q9KHT9 247-371, looked up)
chain: T1 sequence (Q9KHT9 247-371)
Take B1: the “stoichiometry N” value in the data set “crystal structure” was found to be 2.
